Among the test systems are SK-OV-3; NCI-H23; NCI-H226; MCF7; RXF 393; T47D; DU-145; HCT-15; IGROV-1; HCC 2998; SK-MEL-5; SF-295; SW-620; UACC-257; K562; OVCAR-3; Hs-578T; SNB-19; NCI-H522; SR.
What all share (assay): NCI tumour cell line growth inhibition, 48 h

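Each compound was tested at five concentrations against cells in 96-well plates for 48 hours. GI50 = concentration required for 50% inhibition of growth.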 The source made the active and inactive calls. Cut-off read from the data, not from the text of the source: active = GI50 up to about 1.1 µM and inactive = higher.

As to `C[C@@H]1CCC[C@]2(C)O[C@H]2CC[C@@](C)(O)[C@@H]2CC3=C(CO)C(=O)O[C@H]3[C@H]1O2`, the GI50 in the test with SK-OV-3, in the test with NCI-H23, in the test on NCI-H226, in the test with MCF7, with RXF 393 and in the test with T47D was > 50 µM (inactive) in each case. Moreover, the GI50 with DU-145 is > 50 µM (inactive); in the test on HCT-15 it was over 50 µM; with IGROV-1, 25.5 µM (inactive); in the test on HCC 2998, > 50 µM (inactive); in the test with SK-MEL-5, > 50 µM (inactive); with SF-295, > 50 µM (inactive). The GI50 in the test on SW-620, in the test with UACC-257, in the test with K562, in the test on OVCAR-3, in the test with Hs-578T and in the test on SNB-19 was > 50 µM (inactive) in each case. The GI50 with NCI-H522 was 28.4 µM (inactive).
On to `COc1cc(C#CC(=O)OC/C=C/c2ccc3c(c2)OCO3)cc(OC)c1OC`, for which the GI50 in the test on SK-OV-3 was 27.6 µM (inactive); with NCI-H23, 25.2 µM (inactive); in the test with NCI-H226, 21.4 µM (inactive); with MCF7, 19.5 µM (inactive); with RXF 393 it was 12.3 µM (inactive); in the test on T47D, 59.6 µM (inactive). Besides, the GI50 in the test on DU-145 was 42.6 µM (inactive); in the test on SR it was 16.7 µM (inactive); in the test with HCT-15, 24.9 µM; in the test on HCC 2998, 26.2 µM (inactive); in the test with SK-MEL-5, 17.5 µM (inactive); in the test on SF-295, 36.1 µM (inactive). Besides, the GI50 is 27.5 µM (inactive) in the test on SW-620; 26.8 µM (inactive) in the test on UACC-257; 28.9 µM (inactive) in the test with K562; 26.5 µM (inactive) with OVCAR-3; 22.2 µM (inactive) with Hs-578T; 42.9 µM (inactive) in the test on SNB-19.
Regarding `O=C1C=CC2(O[C@H](c3ccccc3)[C@@H](c3ccccc3)O2)C(SC(=O)c2ccccc2)C1` (stereo partly specified), the GI50 in the test on SK-OV-3 was 2.32 µM (inactive); in the test with NCI-H23, 1.63 µM (inactive); in the test on NCI-H226, 1.74 µM (inactive); in the test on MCF7, 0.371 µM (active); in the test with RXF 393, 0.182 µM (active); in the test on T47D it was 2.06 µM (inactive). For the same compound, the GI50 is 3.34 µM (inactive) in the test on DU-145; 0.256 µM (active) with SR; 0.673 µM in the test with HCT-15; 1.52 µM (inactive) with IGROV-1; 1.47 µM (inactive) in the test on SK-MEL-5; 2.91 µM (inactive) with SF-295. Besides, the GI50 is 0.288 µM (active) in the test on SW-620; 1.79 µM (inactive) in the test with UACC-257; 1.32 µM (inactive) in the test with K562; 1.79 µM (inactive) in the test with OVCAR-3; 1.62 µM (inactive) in the test on Hs-578T; 2.19 µM (inactive) in the test with SNB-19.
For `O=C(/C=C(\C(=O)c1cccs1)c1cccs1)c1ccc(C(=O)/C=C(\C(=O)c2cccs2)c2cccs2)cc1`, the GI50 in the test with SK-OV-3, in the test with NCI-H226, in the test on MCF7, with RXF 393, in the test with T47D and with DU-145 was > 100 µM (inactive) each time. Besides, the GI50 was > 100 µM (inactive) with SR; over 100 µM in the test with HCT-15; > 100 µM (inactive) in the test on IGROV-1; > 100 µM (inactive) in the test on HCC 2998; > 100 µM (inactive) in the test with SK-MEL-5; > 100 µM (inactive) in the test on SF-295. The GI50 with SW-620, in the test with UACC-257, with K562, with Hs-578T and in the test with SNB-19 was > 100 µM (inactive) throughout.
Turning to `CN[C@@H](C)[C@H](OP(=O)(O)OC1[C@@H](O)[C@H](O)C(O)[C@H](O)[C@@H]1O)c1ccccc1` (stereo partly specified), the GI50 with SK-OV-3, in the test on NCI-H23, in the test on NCI-H226, with MCF7, with T47D and with DU-145 was > 100 µM (inactive) throughout. The GI50 with HCT-15 is over 100 µM; in the test with IGROV-1, > 100 µM (inactive); in the test with HCC 2998, > 100 µM (inactive); with SK-MEL-5, > 100 µM (inactive); in the test on SF-295 it was > 100 µM (inactive); in the test with SW-620, > 100 µM (inactive). In addition, the GI50 with UACC-257, in the test on OVCAR-3, in the test on Hs-578T, in the test on SNB-19 and in the test on NCI-H522 was > 100 µM (inactive) each time.
On to `Nc1nc(N)c(C2=CCN(Cc3ccccc3)CC2)c(=O)[nH]1`, for which the GI50 in the test on SK-OV-3, in the test on NCI-H23, with NCI-H226, with MCF7, with RXF 393 and in the test with T47D was > 100 µM (inactive) throughout. Also, the GI50 is > 100 µM (inactive) in the test with DU-145; over 100 µM in the test with HCT-15; > 100 µM (inactive) with IGROV-1; > 100 µM (inactive) with SK-MEL-5; > 100 µM (inactive) with SF-295; > 100 µM (inactive) with SW-620. Moreover, the GI50 with UACC-257, in the test with K562, in the test on OVCAR-3, with Hs-578T, with SNB-19 and in the test with NCI-H522 was > 100 µM (inactive) each time.
As to `CCCC1c2c(ccc3ccccc23)Oc2ccc3ccccc3c21`, the GI50 with SK-OV-3 is > 100 µM (inactive); in the test on NCI-H23, 60.4 µM (inactive); with NCI-H226, 60.3 µM (inactive); with MCF7, 15.5 µM (inactive); with RXF 393, 29.1 µM (inactive); in the test on T47D, 14.6 µM (inactive). Further, the GI50 is 84.3 µM (inactive) in the test on DU-145; 31.6 µM with HCT-15; 50.7 µM (inactive) with IGROV-1; 34.7 µM (inactive) in the test with SK-MEL-5; 28.1 µM (inactive) with SF-295; 82.4 µM (inactive) in the test on SW-620. The GI50 was 24.2 µM (inactive) with UACC-257; 61.4 µM (inactive) with OVCAR-3; > 100 µM (inactive) with Hs-578T; > 100 µM (inactive) with SNB-19; 25.5 µM (inactive) in the test on NCI-H522.
Take `CC1=C(C)C(=O)C(C2=C(C3=CC(=O)C(C)=C(C)C3=O)C(=O)C(C)=C(C)C2=O)=CC1=O`: the GI50 in the test on SK-OV-3 was 17.4 µM (inactive); in the test on NCI-H23, 14.7 µM (inactive); in the test on NCI-H226, 11 µM (inactive); in the test on MCF7, 2.67 µM (inactive); with RXF 393, 1.83 µM (inactive); with T47D, 2.75 µM (inactive). Also, the GI50 in the test on DU-145 is 14 µM (inactive); with HCT-15, 0.294 µM; in the test on IGROV-1, 10.9 µM (inactive); in the test with HCC 2998, 15.2 µM (inactive); with SK-MEL-5, 2.15 µM (inactive); with SF-295, 17.7 µM (inactive). For the same compound, the GI50 with SW-620 was 3.32 µM (inactive); in the test on UACC-257 it was 13.3 µM (inactive); with Hs-578T it was 16.1 µM (inactive); in the test with SNB-19, > 56.8 µM (inactive); in the test on NCI-H522, 1.95 µM (inactive).

The values are drawn from ChEMBL document CHEMBL1201862, “PubChem BioAssay data set” (2004).
